In paper PMC9049205 (RSC Advances, 2020):
Read-outs that look alike come from different tables or passages of the source.

Tests used:
[1] = tested on: influenza virus (A/PR/8/34 H1N1 strain); test: organism not typed; assay type: cell-based, Influenza A/PR/8/34 (H1N1); details: for EC50: 48 h, read-out: Anti-influenza virus activity EC50
[2] = tested on: influenza A virus; details: in vitro; cited from earlier work
[3] = tested on: avian influenza A H5N1; details: mouse, in vivo; cited from earlier work

Compound | SI (selectivity index: CC50/EC50) [1] | anti-influenza activity (in words) [1] | EC50 ([1]; MDCK) [µM] | median effective concentration (EC50), influenza A virus replication [2] | protection of mice challenged with lethal doses of avian influenza A H5N1 [3] | EC50 [1] [µM]
CSc1ccccc1-c1noc(C)c1C(=O)N1CCC(c2ccc([N+](=O)[O-])cc2Cl)CC1 [Compound 1c, (4-(2-Chloro-4-nitrophenyl)piperidin-1-yl)(5-methyl-3-(2-(methylthio)phenyl)isoxazol-4-yl)methanone] | 398.41 | excellent activity than ribavirin | 0.502 ± 0.002 | – | – | –
COc1ccc(-c2noc(C)c2C(=O)N2CCC(c3ccc([N+](=O)[O-])cc3Cl)CC2)c(OC)c1 [Compound 1f, (4-(2-Chloro-4-nitrophenyl)piperidin-1-yl)(3-(2,4-dimethoxyphenyl)-5-methylisoxazol-4-yl)methanone] | 13.68 | excellent activity than ribavirin | 2.036 ± 0.009 | – | – | –
Cc1onc(-c2ccccc2)c1C(=O)N1CCN(c2ccc([N+](=O)[O-])cc2Cl)CC1 [nucleozin, Nucleozin] | – | – | – | nanomolar | protected mice | –
COc1ccccc1-c1noc(C)c1C(=O)N1CCC(c2ccc([N+](=O)[O-])cc2Cl)CC1 [Compound 1b, (4-(2-Chloro-4-nitrophenyl)piperidin-1-yl)(3-(2-methoxyphenyl)-5-methylisoxazol-4-yl)methanone] | 272.93 | excellent activity than ribavirin | 0.253 ± 0.001 | – | – | –
(4-(2-Chloro-4-nitrophenyl)piperidin-1-yl)(3-methyl-5-styrylisoxazol-4-yl)methanone [Compound 1i] | – | moderate activity | – | – | – | 34.483 ± 0.014
(5-Benzyl-3-methylisoxazol-4-yl)(4-(2-chloro-4-nitrophenyl) piperidin-1-yl)methanone [Compound 1j] | – | moderate activity | – | – | – | 19.41 ± 0.012
Cc1onc(-c2ccco2)c1C(=O)N1CCC(c2ccc([N+](=O)[O-])cc2Cl)CC1 [Compound 1h, (4-(2-Chloro-4-nitrophenyl)piperidin-1-yl)(3-(furan-2-yl)-5-methylisoxazol-4-yl)methanone] | – | moderate activity | 16.226 ± 0.012 | – | – | –
COc1nc2ccccc2cc1-c1noc(C)c1C(=O)N1CCC(c2ccc([N+](=O)[O-])cc2Cl)CC1 [Compound 1e, (4-(2-Chloro-4-nitrophenyl)piperidin-1-yl)(3-(2-methoxyquinolin-3-yl)-5-methylisoxazol-4-yl)methanone] | 2.52 | moderate activity | 9.905 ± 0.01 | – | – | –
NC(=O)c1ncn([C@@H]2O[C@H](CO)[C@@H](O)[C@H]2O)n1 [Ribavirin, reference compound] | 6.37 | – | 9.891 ± 0.06 | – | – | –
Cc1onc(-c2cccc(Cl)c2Cl)c1C(=O)N1CCC(c2ccc([N+](=O)[O-])cc2Cl)CC1 [Compound 1d, (4-(2-Chloro-4-nitrophenyl)piperidin-1-yl)(3-(2,3-dichlorophenyl)-5-methylisoxazol-4-yl)methanone] | – | moderate activity | 21.572 ± 0.015 | – | – | –
Cc1onc(-c2ccccc2F)c1C(=O)N1CCC(c2ccc([N+](=O)[O-])cc2Cl)CC1 [Compound 1g, (4-(2-Chloro-4-nitrophenyl)piperidin-1-yl)(3-(2-fluorophenyl)-5-methylisoxazol-4-yl)methanone] | 12.27 | excellent activity than ribavirin | 1.356 ± 0.008 | – | – | –
Cc1onc(-c2ccccc2)c1C(=O)N1CCC(c2ccc([N+](=O)[O-])cc2Cl)CC1 [Compound 1a, (4-(2-Chloro-4-nitrophenyl)piperidin-1-yl)(5-methyl-3-phenylisoxazol-4yl)methanone] | 22.02 | excellent activity than ribavirin | 0.898 ± 0.004 | – | – | –
